Measurements from ChEMBL document CHEMBL4340557, “Fasudil dichloroacetate (FDCA), an orally available agent with potent therapeutic efficiency on monocrotaline-induced pulmonary arterial hypertension rats” (Bioorg Med Chem Lett, 2019).

Key:
[1] = AUC (0 to infinity) in Sprague-Dawley rat at 12.48 mg/kg, po by LC-MS/MS analysis; type: ADME, organism-based; design: dose 12.48 mg/kg, time infinity, route oral; details: in vivo
[2] = Plasma concentration in Sprague-Dawley rat at 12.48 mg/kg, po measured at 0.5 hrs by LC-MS/MS analysis; type: ADME, organism-based
[3] = AUC (0 to t) in Sprague-Dawley rat at 12.48 mg/kg, po by LC-MS/MS analysis; type: ADME, organism-based; details: in vivo
[4] = Plasma concentration in Sprague-Dawley rat at 12.48 mg/kg, po measured at 4 hrs by LC-MS/MS analysis; type: ADME, organism-based
Rattus norvegicus [5] = test: (§1) Anti-hypersensitive activity in MCT-induced pulmonary arterial hypertension Sprague-Dawley rat model assessed as right ventricular systolic pressure at 37.5 mg/kg, po administered daily for 14 days starting from 14 days post-MCT challenge and measured post-last dose by pressure transducer-coupled polygraphy (reference value: 59.06 +/- 3.26 mmHg); type: functional
[6] = Plasma concentration in Sprague-Dawley rat at 12.48 mg/kg, po measured at 1 hr by LC-MS/MS analysis; type: ADME, organism-based
Rattus norvegicus [7] = test: Hemodynamic activity in Sprague-Dawley rat assessed as effect on mean systemic arterial pressure at 37.5 mg/kg, po administered daily for 2 weeks by pressure transducer-coupled polygraphy; type: ADME, organism-based; details: in vivo, 336 h
[8] = AUMC (0 to infinity) in Sprague-Dawley rat at 12.48 mg/kg, po by LC-MS/MS analysis; type: ADME, organism-based; details: in vivo
[9] = Elimination rate constant in Sprague-Dawley rat at 12.48 mg/kg, po by LC-MS/MS analysis; type: ADME, organism-based; details: in vivo
[10] = Tmax in Sprague-Dawley rat at 12.48 mg/kg, po by LC-MS/MS analysis; type: ADME, organism-based; details: in vivo
Rattus norvegicus [11] = test: (§2) Anti-hypersensitive activity in MCT-induced pulmonary arterial hypertension Sprague-Dawley rat model assessed as reduction in cardiomyocyte hypertrophy by measuring cardiac fibrosis at 37.5 mg/kg, po administered daily for 14 days starting from 14 days post-MCT challenge and measured post-last dose by Masson's trichrome staining-based microscopic analysis (reference value: 11.74 +/- 3.24 %); type: functional; design: scale not given: the % may be the effect or the level left
Rattus norvegicus [12] = test: (§3) Anti-hypersensitive activity in MCT-induced pulmonary arterial hypertension Sprague-Dawley rat model assessed as pulmonary artery medial thickness at 37.5 mg/kg, po administered daily for 14 days starting from 14 days post-MCT challenge and measured post-last dose by hematoxylin and eosin staining-based microscopic analysis (reference value: […] +/- […]); type: functional
Rattus norvegicus [13] = test: as §1, with “mean pulmonary artery” for “right ventricular systolic”, “36” for “59.06”, “2.83” for “3.26”; type: functional
Rattus norvegicus [14] = test: as §2, with “lung” for “reduction in cardiomyocyte hypertrophy by measuring cardiac”, “6.12” for “11.74”, “1.66%)” for “3.24 %)”; type: functional
Rattus norvegicus [15] = test: as §2, with “cross-sectional area of cardiomyocyte” for “cardiac fibrosis”, “dose in presence of DCA” for “dose”, “hematoxylin and eosin” for “Masson's trichrome”, “418” for “11.74”, “50.88 micrometer2)” for “3.24 %)”; type: functional
[16] = AUMC (0 to t) in Sprague-Dawley rat at 12.48 mg/kg, po by LC-MS/MS analysis; type: ADME, organism-based; details: in vivo
Rattus norvegicus [17] = test: Hemodynamic activity in Sprague-Dawley rat assessed as effect on mean systemic arterial pressure at 37.5 mg/kg, po administered daily for 2 weeks in presence of DCA by pressure transducer-coupled polygraphy; type: ADME, organism-based; details: in vivo, 336 h
Rattus norvegicus [18] = test: as §2, with “cross-sectional area of cardiomyocyte” for “cardiac fibrosis”, “hematoxylin and eosin” for “Masson's trichrome”, “418” for “11.74”, “50.88 micrometer2)” for “3.24 %)”; type: functional
Rattus norvegicus [19] = test: as §1, with “mean pulmonary artery” for “right ventricular systolic”, “dose in presence of DCA” for “dose”, “36” for “59.06”, “2.83” for “3.26”; type: functional
[20] = Plasma concentration in Sprague-Dawley rat at 12.48 mg/kg, po measured at 0.25 hrs by LC-MS/MS analysis; type: ADME, organism-based
Rattus norvegicus [21] = test: as §2, with “dose in presence of DCA” for “dose”; type: functional; design: scale not given: the % may be the effect or the level left
Rattus norvegicus [22] = test: as §3, with “dose in presence of DCA” for “dose”; type: functional
[23] = MRT in Sprague-Dawley rat at 12.48 mg/kg, po by LC-MS/MS analysis; type: ADME, organism-based; details: in vivo
[24] = Cmax in Sprague-Dawley rat at 12.48 mg/kg, po by LC-MS/MS analysis; type: ADME, organism-based; design: dose 12.48 mg/kg, route oral; details: in vivo
Rattus norvegicus [25] = test: as §2, with “lung” for “reduction in cardiomyocyte hypertrophy by measuring cardiac”, “dose in presence of DCA” for “dose”, “6.12” for “11.74”, “1.66%)” for “3.24 %)”; type: functional
[26] = Plasma concentration in Sprague-Dawley rat at 12.48 mg/kg, po measured at 2 hrs by LC-MS/MS analysis; type: ADME, organism-based
Rattus norvegicus [27] = test: as §1, with “dose in presence of DCA” for “dose”; type: functional
Rattus norvegicus [28] = test: as §2, with “15.5” for “37.5”; type: functional; design: scale not given: the % may be the effect or the level left
Rattus norvegicus [29] = test: as §1, with “15.5” for “37.5”; type: functional
Rattus norvegicus [30] = test: as §1, with “mean pulmonary artery” for “right ventricular systolic”, “15.5” for “37.5”, “36” for “59.06”, “2.83” for “3.26”; type: functional
Rattus norvegicus [31] = test: as §1, with “hypertrophy index” for “systolic pressure”, “15.5” for “37.5”, “[…]” for “59.06”, “[…]” for “3.26”; type: functional
Rattus norvegicus [32] = test: Hemodynamic activity in Sprague-Dawley rat assessed as effect on mean systemic arterial pressure at 15.5 mg/kg, po administered daily for 2 weeks by pressure transducer-coupled polygraphy; type: ADME, organism-based; details: in vivo, 336 h
Rattus norvegicus [33] = test: as §3, with “15.5” for “37.5”; type: functional
Rattus norvegicus [34] = test: as §2, with “lung” for “reduction in cardiomyocyte hypertrophy by measuring cardiac”, “15.5” for “37.5”, “6.12” for “11.74”, “1.66%)” for “3.24 %)”; type: functional
Rattus norvegicus [35] = test: as §2, with “cross-sectional area of cardiomyocyte” for “cardiac fibrosis”, “15.5” for “37.5”, “hematoxylin and eosin” for “Masson's trichrome”, “418” for “11.74”, “50.88 micrometer2)” for “3.24 %)”; type: functional

**Q.** What does the source list for `Cl.O=S(=O)(c1cccc2cnccc12)N1CCCNCC1` [FASUDIL HYDROCHLORIDE]?
**A.** AUC(0-inf) [1]: 59.8 ng·h/mL; concentration at 0.5 h [2]: 23.2 ng/mL; AUC(0-t) [3]: 55.4 ng·h/mL; concentration at 4 h [4]: 3.85 ng/mL; Activity (Rattus norvegicus [5]): 59.9 mmHg; concentration at 1 h [6]: 17.8 ng/mL; Activity (Rattus norvegicus [7]): Non-Toxic; AUMC [8]: 75.7 hr.hr.ng/ml; k el [9]: 0.000253 s⁻¹; Tmax [10]: 15 min; Activity (Rattus norvegicus [11]): 3.97%; Activity (Rattus norvegicus [12]): 0.21; Activity (Rattus norvegicus [13]): 32.83 mmHg; Activity (Rattus norvegicus [14]): 6.41%; Activity (Rattus norvegicus [15]): 341.12 um2; AUMCt [16]: 52.8 hr.hr.ng/ml; Activity (Rattus norvegicus [17]): Non-Toxic; Activity (Rattus norvegicus [18]): 354.35 um2; Activity (Rattus norvegicus [19]): 29.83 mmHg; concentration at 0.25 h [20]: 84.2 ng/mL; Activity (Rattus norvegicus [21]): 3.84%; Activity (Rattus norvegicus [22]): 0.2; MRT [23]: 72 min; Cmax [24]: 84.2 ng/mL; Activity (Rattus norvegicus [25]): 6.71%; concentration at 2 h [26]: 7.01 ng/mL; Activity (Rattus norvegicus [27]): 51.13 mmHg

**Q.** With `O=C([O-])C(Cl)Cl.[Na+]` [SODIUM DICHLOROACETATE] as the molecule, how does the Activity (Rattus norvegicus [28]) read?
**A.** Its Activity is 8.47%.

**Q.** What about the Activity (Rattus norvegicus [29]) of the same molecule?
**A.** Its Activity is 57.4 mmHg.

**Q.** And the Activity (Rattus norvegicus [30])?
**A.** The Activity was 34 mmHg.

**Q.** What about the Activity_index (Rattus norvegicus [31]) of the same molecule?
**A.** Its Activity_index is 0.564.

**Q.** What about the Activity (Rattus norvegicus [32]) of the same molecule?
**A.** The Activity was “Non-Toxic”.

**Q.** And the Activity (Rattus norvegicus [33])?
**A.** The Activity was 0.3.

**Q.** What about the Activity (Rattus norvegicus [34]) of the same molecule?
**A.** The Activity was 12.45%.

**Q.** And the Activity (Rattus norvegicus [35])?
**A.** The Activity was 387.53 um2.
